This is an account of results in paper PMC7268155 (F1000Research, 2020).

Series [1] has as its system Ebola virus replication (trVLP). The series can be described thus: microbe, parasite or virus in culture. As to conditions: for inhibition at 10 µM / IC50: Zaire ebolavirus, HEK-293T; for inhibition at 10 µM: read-out: Inhibition at 10µM (percent inhibition of trVLP replication); for IC50: read-out: IC50 to inhibit Ebola virus (trVLP) replication. It counts as cell-based, Ebola Zaire.

Series [2] in a line: in vitro. As to conditions: human, Viability at 10µM (MTT viability).
The subject of series [3] is HEK-293T cells. As to conditions: for Viability at 10µM (MTT viability): human.
Series [4] has as its system Leishmania spp. As to conditions: cited from earlier work.
The subject of series [5] is Plasmodium. As to conditions: cited from earlier work.
The test system of series [6] is Ebola virus. As to conditions: cited from earlier work.
Series [7] relates to Ebola virus disease. As to conditions: mouse, in vivo; cited from earlier work.

Counter-ions that a name gives are not always drawn.

For orientation: inhibition means the relative decrease from the control value, in per cent. What is called viability is a read-out of living cells in per cent, often relative to untreated cells. What is called Inhibition is the relative decrease from the control value, in per cent. The IC50 is the concentration at which inhibition is half-maximal.

Take `N#C/C=C/c1ccc2ccccc2n1` [2CNQ]: in series [1], the inhibition at 10 µM amounted to 3.07 ± 8.34%. The viability at 10 µM in series [2] was found to be 88 ± 3.63%.

As for `O=C(O)/C=C/c1ccc2ccccc2n1` [2COOHQ], in series [1], the “inhibitory activity in trVLP assay (in words)” value (“inhibitory activity” for short) is given as “strongly reduced the antiviral inhibition” and the inhibition at 10 µM is 30.6 ± 6.15%. In addition, in series [2], the viability at 10 µM came to 88.5 ± 1.54%. The “toxicity / cell viability (in words)” value in series [3] is reported as “good cell viability”.

`NC/C=C/c1ccc2ccccc2n1` [2NH2Q]: in series [1], the “inhibitory activity” value is listed as “having inhibitory activity”, the “Inhibition at 10µM (percent inhibition of trVLP replication)” value was determined as 89.74± 6.53%, the IC50 came to 4.66 µM and the inhibition at 10 µM was 89%. The viability at 10 µM in series [2] came to 81%. Besides, the “Viability at 10µM (MTT viability)” value in series [3] turned out to be 81.10± 2.09%.

For `OC/C=C/c1ccc2ccccc2n1` [2OHQ], in series [1], the “inhibitory activity” value is given as “having inhibitory activity”, the “Inhibition at 10µM (percent inhibition of trVLP replication)” value came to 89.69± 4.09% and the inhibition at 10 µM stood at 89%. In addition, in series [4], the “activity against Leishmania” value is “in vitro and in vivo activities”. The viability at 10 µM in series [2] amounted to 31%. For the same compound, the “Viability at 10µM (MTT viability)” value in series [3] stood at 31.15± 1.27%.

Consider `CCCc1ccc2ccccc2n1` [2PQSel], for which the inhibition at 10 µM in series [1] came to 10.8 ± 32.4%. In series [4], the “activity against Leishmania” value was “in vitro and in vivo activities”; the antileishmanial activity entry is “antileishmanial activity”. Besides, in series [2], the viability at 10 µM came out at 97.6 ± 2.06%.

On to `CCCCCc1ccc2ccccc2n1` [2PentQ], for which the “Inhibition at 10µM (percent inhibition of trVLP replication)” value in series [1] was -6.39± 9.15%. The “Viability at 10µM (MTT viability)” value in series [3] is 103.48± 0.99%.

For `OCCCCCCCCCCCCCCCCc1ccc2ccccc2n1` [2Q16OH], the inhibition at 10 µM in series [1] is -124 ± 30.6%. For the same compound, the viability at 10 µM in series [2] turned out to be 74 ± 0.75%.

In the case of `OC(Cc1ccc2ccccc2n1)c1ccccc1` (centres unmarked) [2QPOH], in series [1], the inhibition at 10 µM is -114 ± 92.5%. Further, the viability at 10 µM in series [2] was found to be 88.3 ± 3.26%.

In the case of `C(=C\c1ccc2ccccc2n1)/c1ccc2ccccc2n1` [2QQ], in series [1], the “inhibitory activity” value is “having inhibitory activity” and the inhibition at 10 µM amounted to 74.3 ± 13.4%. In addition, in series [2], the viability at 10 µM worked out at 57.31 ± 0.29%.

Regarding `C#CC(O)CCCCCCCCCCCCC#Cc1ccc2ccccc2n1` (centres unmarked) [2Qi15], in series [1], the “inhibitory activity” value is “having inhibitory activity” and the inhibition at 10 µM came out at 93.3 ± 4.94%. The viability at 10 µM in series [2] was found to be 109.5 ± 0.25%.

Regarding `COc1ccc(/C=C/c2ccc3ccc(C(O)c4cccc(C#N)c4)c(OC)c3n2)cc1OC` (centres unmarked) [AS65], the inhibition at 10 µM in series [1] is -10.2 ± 65.4%. For the same compound, the viability at 10 µM in series [2] turned out to be 77.51 ± 0.4%.

As to `CCN(CC)Cc1cc(Nc2ccnc3cc(Cl)ccc23)ccc1O` [Amodiaquine, amodiaquine dihydrochloride dihydrate, reference compound], in series [5], the antiplasmodial activity entry is on record as “antiplasmodial activity”. In addition, in series [1], the “inhibitory activity” value is reported as “significant reductions in luciferase activity”, the IC50 was found to be 1.45 µM and the inhibition at 10 µM came to 97.7 ± 10.6%. Further, the viability at 10 µM in series [2] came out at 87.7 ± 1%. The “inhibitory effects in pseudo-type entry assay” value in series [6] is listed as “inhibitory effects”. Moreover, in series [3], the “toxicity / cell viability (in words)” value is recorded as “without significant toxicity”.

On to `CCCCCc1ccc2ccccc2n1` [BS460], for which the antiplasmodial activity result in series [5] was “antiplasmodial activity”. In series [1], the “Inhibition at 10µM (percent inhibition of trVLP replication)” value was found to be 4.04± 44.15%. The viability at 10 µM in series [2] worked out at 107.5 ± 0.59%.

`CCN(CC)CCCC(C)Nc1ccnc2cc(Cl)ccc12` (centres unmarked) [Chloroquine, Chloroquine diphosphate, reference compound]: the antiplasmodial activity entry in series [5] is recorded as “antiplasmodial activity”. Besides, in series [1], the “inhibitory activity” value was “significant reductions in luciferase activity”, the IC50 is 3.95 µM and the inhibition at 10 µM is 92.2 ± 6.23%. Further, the “protection against Ebola virus disease” value in series [7] was “protective”. In addition, the viability at 10 µM in series [2] stood at 106 ± 1.24%.

For the compound `Cc1ccc2ccc(Br)c(O)c2n1` [DD1], in series [1], the “inhibitory activity” value is “having inhibitory activity” and the inhibition at 10 µM was determined as 90.5 ± 8.32%. Also, in series [2], the viability at 10 µM was found to be 59.69 ± 0.03%.

In the case of `Cc1ccc2ccc(C(=O)NCc3ccc(F)cc3)c(O)c2n1` [DD2], in series [1], the “inhibitory activity” value is “having inhibitory activity” and the inhibition at 10 µM came out at 80.8 ± 1.38%. For the same compound, in series [2], the viability at 10 µM was 77 ± 4.78%.

`COc1cc(Cc2c(C)nc3ccccc3c2C(=O)O)c(Cl)c2c(C)ccnc12` [DD3]: in series [1], the inhibition at 10 µM was -156 ± 97.3%. Also, the viability at 10 µM in series [2] turned out to be 105 ± 2.54%.

In the case of `COc1ccc(Cl)c2c(C)ccnc12` [DD4], the inhibition at 10 µM in series [1] worked out at 49.7 ± 1.17%. Besides, the viability at 10 µM in series [2] was 90.1 ± 1.64%.

For the compound `Cc1ccnc2c(O)ccc(Cl)c12` [DD5], in series [1], the inhibition at 10 µM was -66.5 ± 17.8%. In series [2], the viability at 10 µM came to 51.4 ± 1.31%.

Take `O=C(O)c1ccc2ccc(/C=C/c3cccnc3)nc2c1O` [DD6]: the inhibition at 10 µM in series [1] was -8.49 ± 18.6%. The viability at 10 µM in series [2] amounted to 96.7 ± 2.01%.

`Cc1ccc2c(C=O)cc(C=O)c(O)c2n1` [DD7]: the inhibition at 10 µM in series [1] is -31.6 ± 80.9%. For the same compound, the viability at 10 µM in series [2] is 90.3 ± 1.64%.

Turning to `CCn1cc(C(=O)O)c(=O)c2ccc(/C=C/c3ccc(O)c(O)c3)nc21` [DD8], in series [1], the inhibition at 10 µM is -74 ± 101%. For the same compound, the viability at 10 µM in series [2] was determined as 91.54 ± 0.41%.

`CCCCOC(=O)c1ccc2ccc(/C=C/c3cc(OC)c(O)c([N+](=O)[O-])c3)nc2c1O` [FS48]: in series [1], the inhibition at 10 µM was -8.41 ± 60.4%. Moreover, in series [2], the viability at 10 µM was found to be 81.5 ± 0.97%.

For the compound `CC(=O)Nc1ccc(/C=C/c2ccc3ccc(C(=O)O)c(O)c3n2)cc1` [FZ49], the inhibition at 10 µM in series [1] turned out to be 21.8 ± 28.4%. In addition, the viability at 10 µM in series [2] came out at 72.7 ± 1.22%.

Consider `O=C(O)c1ccc2ccc(/C=C/c3ccc([N+](=O)[O-])cc3)nc2c1O` [FZ142], for which the inhibition at 10 µM in series [1] was determined as 63.1 ± 2.64%. In series [2], the viability at 10 µM worked out at 102 ± 1.39%.

As to `Oc1cccc2ccc(/C=C/c3ccc4cccc(O)c4n3)nc12` [KHD288], in series [1], the inhibition at 10 µM is -8.41 ± 60.4%. The viability at 10 µM in series [2] came out at 62.7 ± 0.72%.

For `N#Cc1ccc2ccc(/C=C/c3ccc(O)c(O)c3)nc2c1O` [KHD291], the inhibition at 10 µM in series [1] was -68.1 ± 58.1%. Further, the viability at 10 µM in series [2] was 71.17 ± 0.12%.

On to `O=C(c1ccc([N+](=O)[O-])cc1)c1ccc2ccc(/C=C/c3ccc(O)c(O)c3)nc2c1O` [MBN87], for which the inhibition at 10 µM in series [1] was -17.9 ± 51.8%. Besides, the viability at 10 µM in series [2] was determined as 70.5 ± 0.78%.

Regarding `O=C(c1ccc(F)c(F)c1)c1ccc2ccc(/C=C/c3ccc(O)c(O)c3)nc2c1O` [MBN91], in series [1], the “inhibitory activity” value is “having inhibitory activity” and the inhibition at 10 µM is 81.8 ± 8.8%. In series [2], the viability at 10 µM is 43.5 ± 0.73%.

Take `CCCCCCCCC(=O)c1ccc2ccc(/C=C/c3ccc(O)c(O)c3)nc2c1O` [MBN111]: the inhibition at 10 µM in series [1] was -48.9 ± 87.8%. In series [2], the viability at 10 µM was 42.5 ± 4.97%.

Regarding `Cc1ccc2ccc(C(=O)c3ccc([N+](=O)[O-])cc3)c(O)c2n1` [MBN115], in series [2], the viability at 10 µM was 77.1 ± 0.93%.

With `O=C(c1ccccn1)c1ccc2ccc(/C=C/c3ccc(O)c(O)c3)nc2c1O` [MBN132], the inhibition at 10 µM in series [1] was -10.4 ± 57.7%. Also, the viability at 10 µM in series [2] came to 105 ± 1.39%.

Turning to `Cc1ccc(C(=O)c2ccc3ccc(/C=C/c4ccc(O)c(O)c4)nc3c2O)cc1[N+](=O)[O-]` [MBN140], in series [1], the inhibition at 10 µM is -68.1 ± 58.1%. Further, the viability at 10 µM in series [2] amounted to 67.6 ± 0.73%.

`O=C(NCc1ccc(O)c(O)c1)c1ccc2cccc(C(=O)O)c2n1` [MD20]: the inhibition at 10 µM in series [1] is -124 ± 93.4%. In addition, the viability at 10 µM in series [2] came out at 108.3 ± 0.56%.

With `O=[N+]([O-])c1cccc(-c2cc(Br)c(O)c3nc(/C=C/c4ccc(O)c(O)c4)ccc23)c1` [MD823], in series [1], the “inhibitory activity” value is recorded as “having inhibitory activity” and the inhibition at 10 µM was determined as 76.2 ± 3.16%. The viability at 10 µM in series [2] came out at 58.9 ± 1.59%.

For the compound `COc1ccc(CNC(=O)Nc2ccc3ccc(C(=O)O)c(O)c3n2)cc1` [TOF401], the inhibition at 10 µM in series [1] is -44.6 ± 11.9%. Moreover, in series [2], the viability at 10 µM came to 106 ± 1.08%.

As to `O=C(CC(=O)c1ccc2ccc(C(=O)O)c(O)c2n1)c1ccccc1` [TOF411], in series [1], the “inhibitory activity” value was “having inhibitory activity” and the inhibition at 10 µM was found to be 71.04 ± 0.67%. In addition, the viability at 10 µM in series [2] was 104.9 ± 0.6%.

On to `C(/C=C/c1ccc2ccccc2n1)=C\c1ccccc1` [XF906], for which the inhibition at 10 µM in series [1] was determined as 0.21 ± 20.3%. In series [2], the viability at 10 µM was 104 ± 1.65%.
